Reference: PubChem BioAssay AID1963863 (Molecular Pharmacology Branch, DTP, NCI, 2024)

Test system: 931267-113-T-J1-PDC KRAS spheroid with HUVEC/MSC, viability
Assay: Anticancer human tumor 931267-113-T-J1-PDC patient-derived colon adenocarcinoma cell line growth inhibition [KRAS2]
Conditions: for IC50: curve of first compound; for viability, T/C: stronger effect = lower value
Summary of the method: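 Combination screen of spheroid viability in tumor-cell co-cultures with endothelial (HUVEC) and mesenchymal stem cell stroma. Each agent was tested in half-log dilutions, topping at clinical Cmax or at 10 microM without a known Cmax.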

[1] = second compound 0.1 µM, first compound 0.0316 µM
[2] = second compound 0.316 µM, first compound 0.0316 µM
[3] = second compound 1 µM, first compound 0.0316 µM
[4] = second compound 3.16 µM, first compound 0.0316 µM
[5] = second compound 10 µM, first compound 0.0316 µM
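Further: compound exposure lasted 7 days before the readout.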
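Wherever viability, T/C is given: 100% = DMSO vehicle control viability.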

SMILES: CC(=O)Nc1cccc(-n2c(=O)n(C3CC3)c(=O)c3c(Nc4ccc(I)cc4F)n(C)c(=O)c(C)c32)c1 + CC1OCC2(CCN(c3cnc(Sc4ccnc(N)c4Cl)c(N)n3)CC2)C1N
- IC50 (second compound 0.1 µM): 8.08 nM
- IC50 (second compound 0.316 µM): 9.27 nM
- IC50 (second compound 1 µM): 3.37 nM
- IC50 (second compound 3.16 µM): 0.951 nM
- IC50 (second compound 10 µM): 0.274 nM
- viability, T/C (second compound 0.1 µM, first compound 0.0001 µM): 92%
- viability, T/C (second compound 0.1 µM, first compound 0.000316 µM): 81.6%
- viability, T/C (second compound 0.1 µM, first compound 0.001 µM): 68.2%
- viability, T/C (second compound 0.1 µM, first compound 0.00316 µM): 56.1%
- viability, T/C (second compound 0.1 µM, first compound 0.01 µM): 62.2%
- viability, T/C [1]: 20.1%
- viability, T/C (second compound 0.316 µM, first compound 0.0001 µM): 60.2%
- viability, T/C (second compound 0.316 µM, first compound 0.000316 µM): 54.3%
- viability, T/C (second compound 0.316 µM, first compound 0.001 µM): 71.8%
- viability, T/C (second compound 0.316 µM, first compound 0.00316 µM): 48.9%
- viability, T/C (second compound 0.316 µM, first compound 0.01 µM): 51.7%
- viability, T/C [2]: 7.58%
- viability, T/C (second compound 1 µM, first compound 0.0001 µM): 67.7%
- viability, T/C (second compound 1 µM, first compound 0.000316 µM): 69.5%
- viability, T/C (second compound 1 µM, first compound 0.001 µM): 53.9%
- viability, T/C (second compound 1 µM, first compound 0.00316 µM): 50.8%
- viability, T/C (second compound 1 µM, first compound 0.01 µM): 37.7%
- viability, T/C [3]: 6.56%
- viability, T/C (second compound 3.16 µM, first compound 0.0001 µM): 59.7%
- viability, T/C (second compound 3.16 µM, first compound 0.000316 µM): 61.5%
- viability, T/C (second compound 3.16 µM, first compound 0.001 µM): 46.9%
- viability, T/C (second compound 3.16 µM, first compound 0.00316 µM): 38.7%
- viability, T/C (second compound 3.16 µM, first compound 0.01 µM): 26.9%
- viability, T/C [4]: 7.86%
- viability, T/C (second compound 10 µM, first compound 0.0001 µM): 60.8%
- viability, T/C (second compound 10 µM, first compound 0.000316 µM): 47.9%
- viability, T/C (second compound 10 µM, first compound 0.001 µM): 31.8%
- viability, T/C (second compound 10 µM, first compound 0.00316 µM): 35%
- viability, T/C (second compound 10 µM, first compound 0.01 µM): 12.3%
- viability, T/C [5]: 2.06%

SMILES: COC(=O)c1ccc2c(C(=Nc3ccc(N(C)C(=O)CN4CCN(C)CC4)cc3)c3ccccc3)c(O)[nH]c2c1 + CC1OCC2(CCN(c3cnc(Sc4ccnc(N)c4Cl)c(N)n3)CC2)C1N
- IC50 (second compound 0.1 µM): 700 nM
- IC50 (second compound 0.316 µM): 251 nM
- IC50 (second compound 1 µM): < 31.6 nM
- IC50 (second compound 3.16 µM): < 31.6 nM
- IC50 (second compound 10 µM): < 31.6 nM
- viability, T/C [1]: 69.4%
- viability, T/C (second compound 0.1 µM, first compound 0.1 µM): 68.6%
- viability, T/C (second compound 0.1 µM, first compound 0.316 µM): 57.1%
- viability, T/C (second compound 0.1 µM, first compound 1 µM): 44.4%
- viability, T/C (second compound 0.1 µM, first compound 3.16 µM): 0.37%
- viability, T/C (second compound 0.1 µM, first compound 10 µM): 0.35%
- viability, T/C [2]: 63.5%
- viability, T/C (second compound 0.316 µM, first compound 0.1 µM): 67.5%
- viability, T/C (second compound 0.316 µM, first compound 0.316 µM): 38.7%
- viability, T/C (second compound 0.316 µM, first compound 1 µM): 34.3%
- viability, T/C (second compound 0.316 µM, first compound 3.16 µM): 0.32%
- viability, T/C (second compound 0.316 µM, first compound 10 µM): 0.28%
- viability, T/C [3]: 51.2%
- viability, T/C (second compound 1 µM, first compound 0.1 µM): 43.6%
- viability, T/C (second compound 1 µM, first compound 0.316 µM): 44%
- viability, T/C (second compound 1 µM, first compound 1 µM): 4.05%
- viability, T/C (second compound 1 µM, first compound 3.16 µM): 0.33%
- viability, T/C (second compound 1 µM, first compound 10 µM): 0.32%
- viability, T/C [4]: 48.1%
- viability, T/C (second compound 3.16 µM, first compound 0.1 µM): 37%
- viability, T/C (second compound 3.16 µM, first compound 0.316 µM): 25%
- viability, T/C (second compound 3.16 µM, first compound 1 µM): 2.45%
- viability, T/C (second compound 3.16 µM, first compound 3.16 µM): 0.48%
- viability, T/C (second compound 3.16 µM, first compound 10 µM): 0.38%
- viability, T/C [5]: 37.6%
- viability, T/C (second compound 10 µM, first compound 0.1 µM): 32.4%
- viability, T/C (second compound 10 µM, first compound 0.316 µM): 13.2%
- viability, T/C (second compound 10 µM, first compound 1 µM): 0.77%
- viability, T/C (second compound 10 µM, first compound 3.16 µM): 0.35%
- viability, T/C (second compound 10 µM, first compound 10 µM): 0.45%
